Key:
BXPC-3 = assay: Cytotoxicity against human BxPC3 cells; type: functional, cell-based
RWPE-1 = assay: Cytotoxicity against human RWPE1 cells; type: functional, cell-based
HT-29 [1] = assay: Cytotoxicity against human HT-29 Cells; type: functional, cell-based
NCI-H1299 = assay: Cytotoxicity against human H1299 cells; type: functional, cell-based
PC-3 [2] = assay: Cytotoxicity against human PC3 cells; type: functional, cell-based
L02 [3] = assay: Cytotoxicity against human LO2 Cells; type: functional, cell-based
HeLa [4] = assay: Cytotoxicity against human HeLa Cells; type: functional, cell-based
HepG2 [5] = assay: Cytotoxicity against human HepG2 Cells; type: functional, cell-based
HepG2 [6] = assay: Cytotoxicity against human HepG2 Cells by MTT/Trypan Blue Exclusion Assay; type: functional, cell-based
K562 [7] = assay: Antiproliferative activity against human K562 Cells; type: functional, cell-based
THP-1 = assay: Cytotoxicity against human THP1 Cells; type: functional, cell-based
AGS [8] = assay: Cytotoxicity against human AGS Cells by MTT assay; type: functional, cell-based
Caco-2 = assay: Cytotoxicity against human Caco2 Cells after 72 hrs by MTT assay; type: functional, cell-based; conditions: Caco-2, 72 h
[9] = Cytotoxicity against human GBM3 Cells 48 hrs by MTS assay; type: functional; conditions: GBM3, 48 h
[10] = Cytotoxicity against human LX2 Cells after 48 hrs by MTT assay; type: functional; conditions: LX-2, 48 h
[11] = Cytotoxicity against human GBM5 Cells 48 hrs by MTS assay; type: functional
CHO-K1 = assay: Cytotoxicity against […] Cells after 72 hrs by MTT assay; type: functional, cell-based; conditions: Cricetulus griseus, CHO-K1, 72 h
HEp-2 = assay: Cytotoxicity against human Hep2 Cells; type: functional, cell-based
HCT-116 [12] = assay: Cytotoxicity against human HCT116 Cells; type: functional, cell-based
HepG2 [13] = assay: Cytotoxicity against human HepG2 Cells after 72 hrs by MTT assay; type: functional, cell-based; conditions: HepG2, 72 h
HSC-4 = assay: Cytotoxicity against human HSC4 cells; type: functional, cell-based
HepG2 [14] = assay: Cytotoxicity against human HepG2 Cells after 48 hrs by MTT assay; type: functional, cell-based; conditions: HepG2, 48 h
KBM5 = assay: Growth inhibition of human KBM5 cells relative to control; type: functional
AGS [15] = assay: Cytotoxicity against human AGS Cells; type: functional, cell-based
[16] = Cytotoxicity against human GBM6 Cells 48 hrs by MTS assay; type: functional; conditions: GBM6, 48 h
SGC-7901 [17] = assay: Antiproliferative activity against human SGC7901 cells after 24 hrs by MTT assay; type: functional, cell-based; conditions: SGC-7901, 24 h
A549 [18] = assay: Cytotoxicity against human A549 Cells by MTT assay; type: functional, cell-based
HCT-116 [19] = assay: Growth inhibition of human HCT116 cells relative to control; type: functional
NIH3T3 = assay: Cytotoxicity against mouse 3T3 Cells after 48 hrs by MTT assay; type: functional, cell-based; conditions: NIH3T3, 48 h
BGC-823 [20] = assay: Cytotoxicity against human BGC823 cells; type: functional, cell-based
MDA-MB-231 [21] = assay: Cytotoxicity against human MDA-MB-231 cells; type: functional, cell-based
U-87 MG = assay: Cytotoxicity against human U87MG Cells 48 hrs by MTS assay; type: functional, cell-based, U-87MG ATCC
MCF7 [22] = assay: Induction of apoptosis in human MCF7 cells; type: functional, cell-based
L02 [23] = assay: Cytotoxicity against human HL-7702 cells; type: functional, cell-based
[24] = Cytotoxicity against mitoxantrone resistant […] cells expressing BCRP after 15 mins by fluorescence assay; type: functional, cell-based; conditions: Canis lupus familiaris, MDCK2, 0.25 h
GES1 = assay: Cytotoxicity against human GES-1 cells; type: functional, cell-based
[25] = Cytotoxicity against human GBM2 Cells 48 hrs by MTS assay; type: functional; conditions: GBM2, 48 h
U373 MG = assay: Cytotoxicity against human U373MG Cells 48 hrs by MTS assay; type: functional, cell-based, U-373MG ATCC
HSC-2 = assay: Cytotoxicity against human HSC2 cells; type: functional, cell-based
MGC-803 [26] = assay: Cytotoxicity against human MGC803 cells; type: functional, cell-based
SK-OV-3 = assay: Cytotoxicity against human SKOV3 Cells after 48 hrs by Cell Titer Blue assay; type: functional, cell-based; conditions: SK-OV-3, 48 h
SW-620 = assay: Cytotoxicity against human SW620 Cells; type: functional, cell-based
[27] = Cytotoxicity against human GBM1 Cells 48 hrs by MTS assay; type: functional; conditions: GBM1, 48 h
SMMC-7721 = assay: Anticancer activity against human SMMC7721 cells after 72 hrs by MTT assay; type: functional, cell-based; conditions: SMMC-7721, 72 h
HL-60 = assay: Cytotoxicity against human HL60 cells; type: functional, cell-based
MDA-MB-231 [28] = assay: Anticancer activity against human MDA-MB-231 cells after 72 hrs by MTT assay; type: functional, cell-based; conditions: MDA-MB-231, 72 h
[29] = Anticancer activity against human LX2 cells after 72 hrs by MTT assay; type: functional, cell-based; conditions: LX-2, 72 h
PC-3 [30] = assay: Anticancer activity against human PC3 cells; type: functional, cell-based
HT-29 [31] = assay: Cytotoxicity against human HT-29 Cells after 72 hrs by MTT assay; type: functional, cell-based; conditions: HT-29, 72 h
A549 [32] = assay: Cytotoxicity against human A549 Cells after 24 hrs by MTT assay; type: functional, cell-based; conditions: A549, 24 h
SGC-7901 [33] = assay: Cytotoxicity against human SGC7901 cells; type: functional, cell-based
[34] = Cytotoxicity against human GBM4 Cells 48 hrs by MTS assay; type: functional
MGC-803 [35] = assay: Antiproliferative activity against human MGC803 cells after 24 hrs by MTT assay; type: functional, cell-based; conditions: MGC-803, 24 h
SW480 = assay: Cytotoxicity against human SW480 Cells after 24 to 48 hrs by MTT assay; type: functional, cell-based
MCF7 [36] = assay: Cytotoxicity against human MCF7 Cells after 48 hrs by MTT assay; type: functional, cell-based; conditions: MCF7, 48 h
BGC-823 [37] = assay: Antiproliferative activity against human BGC823 cells after 24 hrs by MTT assay; type: functional, cell-based; conditions: BGC-823, 24 h
U-251 = assay: Cytotoxicity against human U251MG cells after 48 hrs by MTS assay; type: functional, cell-based; conditions: U-251, 48 h
EA.hy 926 = assay: Cytotoxicity against human EAhy926 Cells after 72 hrs by MTT assay; type: functional, cell-based; conditions: EA.hy 926, 72 h
[38] = Cytotoxicity against human CCD-1059SK Cells after 48 hrs by MTS assay; type: functional
DU-145 = assay: Anticancer activity against human DU145 cells; type: functional, cell-based
K562 [39] = assay: Cytotoxicity against human K562 Cells after 24 to 48 hrs by MTT assay; type: functional, cell-based
HeLa [40] = assay: Anticancer activity against human HeLa cells; type: functional, cell-based
HSC-3 = assay: Cytotoxicity against human HSC3 cells; type: functional, cell-based
MCF7 [41] = assay: Cytotoxicity against human MCF7 Cells after 48 hrs by MTS assay; type: functional, cell-based; conditions: MCF7, 48 h
MCF7 [42] = assay: Cytotoxicity against human MCF7 cells; type: functional, cell-based
CT26 = assay: Cytotoxicity against mouse CT26 cells; type: functional, cell-based
A549 [43] = assay: Cytotoxicity against human A549 Cells after 24 to 48 hrs by MTT assay; type: functional, cell-based
Bcap37 = assay: Cytotoxicity against human Bcap37 cells; type: functional, cell-based

For `COc1cc(/C=C2/C(=O)/C(=C/c3cc(OC)c(OC)c(OC)c3)c3ccccc32)cc(OC)c1OC`, the IC50 (BXPC-3) was 0.99 µM, the IC50 (RWPE-1) was 9.12 µM and the IC50 (HT-29 [1]) was 0.98 µM. The IC50 (NCI-H1299) was 0.95 µM and the IC50 (PC-3 [2]) was 640 nM.

Work on `COc1cccc2c1C(=O)c1c(O)c3c(c(O)c1C2=O)C[C@@](O)(C(=O)CO)C[C@@H]3O[C@H]1C[C@H](N)[C@H](O)[C@H](C)O1` [DOXORUBICIN] yielded an IC50 (L02 [3]) of 6.93 µM, an IC50 (HeLa [4]) of 2.02 µM and an IC50 (HepG2 [5]) of 0.57 µM. For the same compound, the IC50 (HepG2 [6]) was 14.7 µM, the IC50 (K562 [7]) was 1420 nM and the IC50 (THP-1) was 300 nM.

`COc1cc(/C=C/C(=O)CC(=O)/C=C/c2ccc(O)c(OC)c2)ccc1O` [CURCUMIN] gave an IC50 (AGS [8]) of 20.8 µM, an IC50 (Caco-2) of 28 µM and an IC50 [9] greater than 50 µM. The IC50 [10] was 9.14 µM, the IC50 [11] was greater than 50 µM and the IC50 (CHO-K1) was 21.3 µM. It also gave an IC50 (HEp-2) of 21.4 µM, an IC50 (HCT-116 [12]) of 5.51 to 20 µM and an IC50 (HepG2 [13]) of 20.3 to 24.9 µM. The IC50 (HSC-4) was 7.1 µM, the IC50 (HepG2 [14]) was 9.44 µM and the “growth inhibition (GI)” value (KBM5) was 46%. The IC50 (AGS [15]) was 9.77 µM, the IC50 [16] was greater than 50 µM and the IC50 (SGC-7901 [17]) was greater than 20 µM. The IC50 (A549 [18]) was 25.3 µM, the IC50 (HeLa [4]) was 14 to 22.2 µM and the “growth inhibition (GI)” value (HCT-116 [19]) was 46.87%. The IC50 (NIH3T3) was 9.51 µM, the IC50 (BGC-823 [20]) was 17.5 µM and the IC50 (MDA-MB-231 [21]) was 26.5 µM. The IC50 (U-87 MG) was 7.15 µM, the IC50 (MCF7 [22]) was 17.1 µM and the IC50 (L02 [23]) was 32.3 µM. For the same compound, the IC50 (HepG2 [5]) was 36.8 µM, the IC50 [24] was 32 µM and the IC50 (GES1) was 29.1 µM. The IC50 [25] was greater than 50 µM, the IC50 (U373 MG) was greater than 50 µM and the IC50 (HSC-2) was 7.8 µM. The IC50 (BXPC-3) was 18.2 µM, the IC50 (MGC-803 [26]) was 21.2 µM and the IC50 (SK-OV-3) was 6.7 µM. The IC50 (SW-620) was greater than 50 µM, the IC50 [27] was 39.6 µM and the IC50 (SMMC-7721) was 12.6 µM. For the same compound, the IC50 (HL-60) was 6.3 µM, the IC50 (MDA-MB-231 [28]) was 11.5 µM and the IC50 [29] was 14 µM. The IC50 (PC-3 [30]) was 20.9 µM, the IC50 (HT-29 [31]) was 23.4 µM and the IC50 (A549 [32]) was 52.3 µM. For the same compound, the IC50 (SGC-7901 [33]) was 22.5 µM, the IC50 [34] was greater than 50 µM and the IC50 (MGC-803 [35]) was greater than 20 µM. The IC50 (SW480) was 15 to 17 µM, the IC50 (MCF7 [36]) was 9.28 µM and the IC50 (BGC-823 [37]) was greater than 20 µM. It also gave an IC50 (RWPE-1) of 15.6 µM, an IC50 (U-251) of 15.3 µM and an IC50 (EA.hy 926) of 20 µM. It also gave an IC50 [38] of 133 µM, an IC50 (DU-145) of 31.7 µM and an IC50 (K562 [39]) of 36 to 38 µM. For the same compound, the IC50 (HeLa [40]) was 4.33 µM, the IC50 (HT-29 [1]) was 18.7 to 66.9 µM and the IC50 (HSC-3) was 11 µM. For the same compound, the IC50 (NCI-H1299) was 18.9 µM, the IC50 (MCF7 [41]) was 68.2 µM and the IC50 (MCF7 [42]) was 22.5 µM. For the same compound, the IC50 (CT26) was greater than 20 µM, the IC50 (A549 [43]) was 28 to 30 µM and the IC50 (PC-3 [2]) was 20000 nM.

`COc1ccc(OC)c(/C=C2\CC/C(=C\c3ccc(O)c(OC)c3)C2=O)c1` gave an IC50 (BGC-823 [20]) of 4.7 µM, an IC50 (GES1) of 27.3 µM and an IC50 (MGC-803 [26]) of 13.3 µM. It also gave an IC50 (SGC-7901 [33]) of 3.9 µM.

`Cc1ccc2ncnc(Oc3ccccc3/C=C/C(=O)/C=C/c3c(Cl)cccc3Cl)c2c1` showed an IC50 (Bcap37) of 4.98 µM, an IC50 (MGC-803 [26]) of 0.85 µM and an IC50 (PC-3 [2]) of 1370 nM.

Source: ChEMBL document CHEMBL4364241, “Developments in the anticancer activity of structurally modified curcumin: An up-to-date review” (Eur J Med Chem, 2019)
